Experimental findings from patent US10251874B2, “Crystalline forms of a JAK inhibitor compound” (THERAVANCE BIOPHARMA R&D IP, LLC, priority 2017, dated 2019) are described below.

The test system of assay [1] is IL-4 stimulated pSTAT6 in CD3+ T cells. Put plainly: Assay 5: Inhibition of IL-4 stimulated pSTAT6 in CD3+ T cells. Type of assay: cell-based. The following applies: T-cell; CD3+ T cells in human PBMCs, flow cytometry; read-out: pIC50, inhibition of IL-4 stimulated pSTAT6 (converted). On the procedure:
The potency of the test compound for inhibition of interleukin-4 (IL-4) stimulated STAT6 phosphorylation was measured in CD3-positive (CD3+) T cells in human peripheral blood mononuclear cells (PBMCs) isolated from human whole blood (Stanford Blood Center) using flow cytometry. Because IL-4 signals through JAK, this assay provides a measure of JAK cellular potency.
CD3+ T cells were identified using a […] (PE) conjugated anti-CD3 antibody (Clone UCHT1, BD Biosciences), while an Alexa Fluor 647 conjugated anti-pSTAT6 antibody (pY641, Clone 18/P, BD Biosciences) was used to detect STAT6 phosphorylation.
Human peripheral blood mononuclear cells (PBMC) were isolated from human whole blood of healthy donors as in Assays 3 and 4. […] After incubation, cells were washed twice in FACS buffer before being analyzed using a LSRII flow cytometer (BD Biosciences).
To determine the inhibitory potency of the test compound in response to IL-4, the median fluorescent intensity (MFI) of pSTAT6 was measured in CD3+ T cells. IC50 values were determined from analysis of the inhibition curves of MFI vs compound concentration. Data are expressed as pIC50 (negative decadic logarithm IC50).

Assay [2] relates to IL-2, IL-4, IL-6, and IFNγ signaling. Put plainly: Cellular assays of Assays 3 to 7 (summary statement). To be noted: Homo sapiens, summary over cellular Assays 3 to 7. Type of assay: cell-based.
Assay [3] concerns IFNγ-induced IP-10. Put plainly: Assay 14: Pharmacodynamic assay: inhibition of IFNγ-induced IP-10 in rabbits. Type of assay: in vivo, New Zealand White rabbits. To be noted: rabbit. How it is done:
The ability of a single intravitreal administration of test compound to inhibit interferon-gamma (IFNγ) induced IP-10 protein levels was measured in rabbit vitreous and retina/choroid tissues.
Solution formulations at concentrations of 1 mg/mL and 4 mg/mL of compound 1 of Example 2 were prepared as in Assay 12. A suspension formulation was prepared by combining crystalline compound 1 of Example 2 with 0.5% hydroxypropyl methylcellulose (HPMC E5), 0.02% Tween 80, and 9 mg/mL sodium chloride in purified water to attain a target concentration of 20 mg/mL.
Male, New Zealand White rabbits (Liveon Biolabs, India) were used for the studies. Animals were acclimated after arrival at the research facilities (Jubilant Biosys Ltd., India). Each rabbit was given a total of two intravitreal (IVT) injections with a total dose volume of 50 μL per eye. The first IVT injection (45 μL per eye) delivered test compound or vehicle at a prescribed time point (i.e. 24 hours for the solution formulations or 1 week for the suspension formulation). The second IVT injection (5 μL per eye) delivered IFNγ (1 μg/eye; Stock solution 1 mg/mL; Kingfisher Biotech) or vehicle for the induction of IP-10. In brief, on the day of the injections, rabbits were anesthetized with an intramuscular injection of ketamine (35 mg/kg) and xylazine (5 mg/kg). Once deeply anesthetized, each eye was rinsed with sterile saline and IVT injections were performed using a 0.5 mL insulin syringe (50 units=0.5 mL) with a 31-gauge needle at the supra-nasal side of the both eyes by marking the position with a Braunstein fixed caliper (2 ¾″) 3.5 mm from the rectus muscle and 4 mm from the limbus.
Tissues were collected 24 hours after the second IVT injection with IFNγ. Vitreous humor (VH) and retina/choroid tissues (R/C) were collected and homogenized, and IP-10 protein levels were measured using a rabbit CXCL10 (IP-10) ELISA kit (Kingfisher Biotech). The percent inhibition of IFNγ-induced IP-10 was calculated in comparison to the vehicle/vehicle and vehicle/IFNγ groups.

Where [4] appears, read: IVT crystalline suspension 20 mg/mL (Example 2), 1 week pre-treatment.
The mark [5] stands for this setting: IVT solution, 45 μg, 24 hour pre-treatment.
The mark [6] stands for this setting: IVT solution, 180 μg, 24 hour pre-treatment.

Each structure is given as a SMILES string. Where two headings read alike, the source gives them in different places.

Take `CCc1cc(O)c(F)cc1-c1ccc2c(-c3nc4c([nH]3)CCN(C3CCN(C)CC3)C4)n[nH]c2c1` [Compound 1, 5-ethyl-2-fluoro-4-(3-(5-(1-methylpiperidin-4-yl)-4,5,6,7-tetrahydro-1H-imidazo[4,5-c]pyridin-2-yl)-1H-indazol-6-yl)phenol]: the IC50 in assay [1] was 7.94 nM; in assay [2] (read-out: IC50 for inhibition of IL-2, IL-4, IL-6, and IFNγ signaling), at most 200 nM; in assay [2] (read-out: pIC50 for inhibition of IL-2, IL-4, IL-6, and IFNγ signaling (converted)), at most 200 nM. For the same compound, in assay [3] (setting [4]), the “inhibition of IFNγ-induced IP-10 in retina/choroid tissues” value is 100%. The figures for the “inhibition of IFNγ-induced IP-10 in vitreous humor” value in assay [3] (setting [4]), in assay [3] (setting [5]) and in assay [3] (setting [6]) were 100%, 70% and 91%, respectively. Also, the “inhibition of IFNγ-induced IP-10 in retina/choroid tissue” value in assay [3] (setting [5]) was 86%; in assay [3] (setting [6]), 100%.
